{"source": "patent US11873320B2", "about": "(REATA PHARMACEUTICALS HOLDINGS, LLC, priority 2013, dated 2024)", "key": {"[1]": {"system": "NQO1 and HMOX1 protein", "assay": "Nrf2 target protein levels in BV2 cells", "assay_type": "cell-based, mouse", "conditions": "concentrations up to 125 nM"}, "[2]": {"system": "NQO1", "assay": "NQO1 enzymatic activity in RAW264.7 cells", "assay_type": "cell-based, mouse", "conditions": "24 hours", "protocol": "Consistent with induction of Nrf2 target genes and corresponding protein products, treatment of RAW264.7 mouse macrophage cells for 24 hours increased NQO1 enzymatic activity in a dose-dependent manner, with increases evident at 7.8 nM (FIG. 6)."}, "[3]": {"system": "TNFα-induced NF-κB activation", "assay": "TNFα-induced NF-κB luciferase reporter, HeLa/NF-κB-Luc cells", "assay_type": "cell-based", "conditions": "Homo sapiens, 1 h pretreatment, TNFα 10 ng/mL 5 h", "text": "NF-κB is a transcription factor that plays a central role in the regulation of many immune and inflammatory responses."}, "[4]": {"system": "phosphorylation of IκBα", "assay": "TNFα-induced phosphorylation of IκBα in HeLa cells (Western blot)", "assay_type": "cell-based, human", "conditions": "6 h pretreatment, TNFα 20 ng/mL 5 min", "protocol": "Total and phosphorylated levels of IκBα were evaluated by Western blot."}, "[5]": {"system": "STAT3 phosphorylation", "assay": "IL-6-induced STAT3 phosphorylation in HeLa cells", "assay_type": "cell-based, human", "conditions": "1 μM, 6 hours pretreatment", "text": "Osteoclastogenesis is a multi-step differentiation process that results from the binding of RANKL to its receptor, RANK, on cells of hematopoietic origin."}, "[6]": {"system": "bleomycin-induced pulmonary fibrosis", "assay": "bleomycin-induced pulmonary fibrosis in mice", "assay_type": "in vivo, mouse", "conditions": "10, 30, or 100 mg/kg, 39 days", "protocol": "Bleomycin was given on Day 0. Daily weights were measured. BAL fluid cell counts were obtained at sacrifice. […] No significant improvement in chronic inflammation score, interstitial fibrosis, or number of fibrotic foci was observed.\nOn the last day of dosing, lung tissue was collected and histology was performed to evaluate the extent of inflammation and interstitial fibrosis. […] Additional evaluation was performed using a rat model of pulmonary fibrosis that has been extensively characterized at the Lovelace Respiratory Research Institute. In this study, rats were challenged with bleomycin or saline by intratracheal administration on day 0. […] For the remaining animals, bronchoalveolar lavage fluid was collected on day 28 for assessment of pro-inflammatory infiltrates, and lung tissue was analyzed for hydroxyproline levels and histopathology. Challenge with bleomycin sulfate induced a substantial release of neutrophils and an increase in soluble collagen in the BALF, as well as an increase in hydroxyproline in the lung."}, "[7]": {"system": "cynomolgus monkeys", "assay": "cardiovascular evaluation in conscious cynomolgus monkeys (telemetry)", "assay_type": "in vivo, monkey", "protocol": "Animals were instrumented with telemetry transmitters for measurement of body temperature, blood pressure, heart rate, and electrocardiogram (ECG) evaluation. Body temperature, systolic, diastolic, and mean arterial blood pressure, heart rate, and ECG parameters (QRS duration and RR, PR, and QT intervals) were monitored continuously from at least 2 hours pre-dose until at least 24 hours post-dose. ECG tracings were printed at designated time points from the cardiovascular monitoring data and were qualitatively evaluated by a board-certified veterinary cardiologist.\nObservations for morbidity, mortality, injury, and availability of food and water were conducted at least twice daily for all animals. Clinical observations were conducted pre-dose, approximately 4 hours post-dose, and following completion of the cardiovascular monitoring period. Body weights were measured and recorded on the day prior to each treatment administration."}, "[8]": {"system": "CD rats", "assay": "pulmonary evaluation in rats", "assay_type": "in vivo, rat", "conditions": "doses up to and including 30 mg/kg, single oral dose", "protocol": "One additional group of eight animals/sex served as the control and received vehicle (sesame oil).\nObservations for mortality, morbidity, injury, and availability of food and water were conducted twice daily for all animals. Clinical observations were conducted prior to dosing, approximately 4 hours post-dose, and following completion of the 8-hour pulmonary monitoring period. […] Pulmonary function (respiratory rate, tidal volume, and minute volume) was monitored for at least 1 hour prior to dosing to establish a baseline and for at least 8 hours post-dose."}, "[9]": {"system": "CYP2B6", "assay": "CYP450 induction in cultured human hepatocytes: CYP2B6", "assay_type": "in vitro ADME", "conditions": "up to 3 μM"}, "[10]": {"system": "rats", "assay": "28-day toxicity study in rats", "assay_type": "in vivo, rat", "text": "One hypothesis for this effect is that AIMs directly or indirectly increase transaminase gene expression in the absence of cellular toxicity."}, "[11]": {"system": "cynomolgus monkeys", "conditions": "for ALP (U/L) / ALT (U/L) / AST (U/L) / Albumin / BUN / Chol / Cr / Glucose / TG / Tot Bil / Tot Prot: Day 14"}, "[12]": {"assay": "metabolism in human liver microsomes"}, "[13]": {"assay": "metabolism in monkey liver microsomes", "conditions": "60-minute incubation, NADPH and UGT"}, "[14]": {"system": "Sprague Dawley rats", "assay": "14-day rat toxicity study (tissue distribution, Nrf2 targets)"}, "[15]": {"conditions": "10 mg/kg, four hours after final dose, Day 14"}}, "note": "Like-named read-outs stand apart in the source and are kept apart here.", "data": [{"smiles": "CC1(C)CC[C@]2(NC(=O)C(C)(F)F)CC[C@]3(C)[C@H](C(=O)C=C4[C@@]5(C)C=C(C#N)C(=O)C(C)(C)[C@@H]5CC[C@]43C)[C@@H]2C1", "note": "[RTA 408, N-((4aS,6aR,6bS,8aR,12aS,14aR,14bS)-11-cyano-2,2,6a,6b,9,9,12a-heptamethyl-10,14-dioxo-1,2,3,4,4a,5,6,6a,6b,7,8,8a,9,10,12a,14,14a,14b-octadecahydropicen-4a-yl)-2,2-difluoropropanamide]", "values": [{"measurement": "NQO1 and HMOX1 protein levels", "setting": "[1]", "result": "increased NQO1 and HMOX1 protein levels"}, {"measurement": "concentration at which increase in NQO1 enzymatic activity is evident", "setting": "[2]", "result": 7.8, "unit": "nM"}, {"measurement": "IC50", "setting": "[3]", "result": "517 ± 83", "unit": "nM"}, {"measurement": "TNFα-induced phosphorylation of IκBα", "setting": "[4]", "result": "inhibited TNFα-induced phosphorylation of IκBα in a dose-dependent manner"}, {"measurement": "IL-6-induced phosphorylation of STAT3", "setting": "[5]", "result": "inhibited phosphorylation of STAT3 induced by IL-6"}, {"measurement": "inflammation and interstitial fibrosis (histology)", "setting": "[6]", "result": "no statistically significant effects"}, {"measurement": "increase in the corrected QT interval (average)", "setting": "[7]; 100 mg/kg oral, not considered related to treatment", "result": 1.6, "unit": "%"}, {"measurement": "effects on cardiovascular function", "setting": "[7]; doses up to and including 100 mg/kg oral", "result": "no effects on cardiovascular function"}, {"measurement": "basic pulmonary endpoints", "setting": "[8]", "result": "did not produce any adverse effects"}, {"measurement": "induction of enzyme activity", "setting": "[9]", "result": "not an inducer"}, {"measurement": "transaminases", "setting": "[10]", "result": "Transaminase elevations"}, {"measurement": "ALP (U/L)", "setting": "[11]; 10 mg/kg", "result": 382, "unit": "U/L"}, {"measurement": "ALT (U/L)", "setting": "[11]; 10 mg/kg", "result": 46, "unit": "U/L"}, {"measurement": "AST (U/L)", "setting": "[11]; 10 mg/kg", "result": 38, "unit": "U/L"}, {"measurement": "Albumin", "setting": "[11]; 10 mg/kg", "result": 4, "unit": "g/dL"}, {"measurement": "BUN", "setting": "[11]; 10 mg/kg", "result": 27, "unit": "mg/dL"}, {"measurement": "Chol", "setting": "[11]; 10 mg/kg", "result": 144, "unit": "mg/dL"}, {"measurement": "Cr", "setting": "[11]; 10 mg/kg", "result": 0.68, "unit": "mg/dL"}, {"measurement": "Glucose", "setting": "[11]; 10 mg/kg", "result": 39, "unit": "mg/dL"}, {"measurement": "TG", "setting": "[11]; 10 mg/kg", "result": 82, "unit": "mg/dL"}, {"measurement": "Tot Bil", "setting": "[11]; 10 mg/kg", "result": 0.23, "unit": "mg/dL"}, {"measurement": "Tot Prot", "setting": "[11]; 10 mg/kg", "result": 7.2, "unit": "g/dL"}, {"measurement": "ALP (U/L)", "setting": "[11]; 30 mg/kg", "result": 416, "unit": "U/L"}, {"measurement": "ALT (U/L)", "setting": "[11]; 30 mg/kg", "result": 47, "unit": "U/L"}, {"measurement": "AST (U/L)", "setting": "[11]; 30 mg/kg", "result": 43, "unit": "U/L"}, {"measurement": "Albumin", "setting": "[11]; 30 mg/kg", "result": 4, "unit": "g/dL"}, {"measurement": "BUN", "setting": "[11]; 30 mg/kg", "result": 20, "unit": "mg/dL"}, {"measurement": "Chol", "setting": "[11]; 30 mg/kg", "result": 122, "unit": "mg/dL"}, {"measurement": "Cr", "setting": "[11]; 30 mg/kg", "result": 0.58, "unit": "mg/dL"}, {"measurement": "Glucose", "setting": "[11]; 30 mg/kg", "result": 53, "unit": "mg/dL"}, {"measurement": "TG", "setting": "[11]; 30 mg/kg", "result": 64, "unit": "mg/dL"}, {"measurement": "Tot Bil", "setting": "[11]; 30 mg/kg", "result": 0.2, "unit": "mg/dL"}, {"measurement": "Tot Prot", "setting": "[11]; 30 mg/kg", "result": 7.2, "unit": "g/dL"}, {"measurement": "ALP (U/L)", "setting": "[11]; 100 mg/kg", "result": 390, "unit": "U/L"}, {"measurement": "ALT (U/L)", "setting": "[11]; 100 mg/kg", "result": 43, "unit": "U/L"}, {"measurement": "AST (U/L)", "setting": "[11]; 100 mg/kg", "result": 37, "unit": "U/L"}, {"measurement": "Albumin", "setting": "[11]; 100 mg/kg", "result": 3.2, "unit": "g/dL"}, {"measurement": "BUN", "setting": "[11]; 100 mg/kg", "result": 24, "unit": "mg/dL"}, {"measurement": "Chol", "setting": "[11]; 100 mg/kg", "result": 93, "unit": "mg/dL"}, {"measurement": "Cr", "setting": "[11]; 100 mg/kg", "result": 0.55, "unit": "mg/dL"}, {"measurement": "Glucose", "setting": "[11]; 100 mg/kg", "result": 32, "unit": "mg/dL"}, {"measurement": "TG", "setting": "[11]; 100 mg/kg", "result": 61, "unit": "mg/dL"}, {"measurement": "Tot Bil", "setting": "[11]; 100 mg/kg", "result": 0.18, "unit": "mg/dL"}, {"measurement": "Tot Prot", "setting": "[11]; 100 mg/kg", "result": 6, "unit": "g/dL"}, {"measurement": "toxicity suggested by clinical chemistry data", "setting": "[11]; 14 days", "result": "no obvious toxicity"}, {"measurement": "mRNAs of Nrf2 target genes in liver and lung", "setting": "[11]; PO QD×14", "result": "induces Nrf2 target genes in monkey tissues"}, {"measurement": "tolerability", "setting": "[11]; all doses, 14 days", "result": "well-tolerated without adverse clinical signs"}, {"measurement": "Nrf2 target enzyme activity (NQO1, GSR) in various tissues", "setting": "[11]; monkey, in vivo", "result": "induces Nrf2 target enzyme activity"}, {"measurement": "unique human metabolites", "setting": "[12]", "result": "No unique human metabolites"}, {"measurement": "parent molecule remaining", "setting": "[12]; 60-minute incubation, NADPH and UGT", "result": "< 10", "unit": "%"}, {"measurement": "parent molecule remaining", "setting": "[13]", "result": "< 10", "unit": "%"}, {"measurement": "brain exposure over in vitro IC50 for NO inhibition", "setting": "[14]; [15]", "result": 240, "unit": "fold"}, {"measurement": "lung exposure over in vitro IC50 for NO inhibition", "setting": "[14]; [15]", "result": 294, "unit": "fold"}, {"measurement": "toxicity finding in the high dose group", "setting": "[14]; 100 mg/kg, tissues collected on Day 6", "result": "observed toxicities"}, {"measurement": "liver NQO1 and GST enzyme activities", "setting": "[14]; PO QD×14", "result": "induced dose-dependently"}]}]}
